Entries after “also recorded” stand apart in the source; their conditions may differ.
What was measured:
Assay type in all cases: in vivo
[1] = Example 1: UUO mice, mean body weight change following surgery; conditions: Example 1, mostly post-surgical day 14, male C57BL/6 mice, PO QD days 1-14, doses of Table 1
Method: (§1) Male 9-12 week old C57BL/6 mice of 23-25 grams body weight were used. All mice were acclimated for a minimum of 5 days prior to the start of the study and housed individually in microisolators throughout the study in a 12:12 light-dark cycle on a standard maintenance mouse chow diet (Harlan Teklad 2018) with food and water given ad libitum. Prior to surgery, all mice were weighed for baseline body weight.
(§2) The UUO surgical intervention was performed according to previously described methods known in the art (Le Meur Y et al., Macrophage accumulation at a site of renal inflammation is dependent on the M-CSF/c-fms pathway, J Leukocyte Biol., 72:530-537; 2002).
(§3) All mice were first anesthetized by intraperitoneal injection with a rodent cocktail (ketamine 10 mg/mL and Xyaline 1 mg/mL) in normal saline (10 μL/g body weight). Pedal reflex and movement of the vibrissae were used to determine the state of unconsciousness. A state of unconsciousness was confirmed after a period of about 5 minutes in all animals. All mice were then shaved on the left side of the abdomen. The shaved area was first swabbed with iodine and then swabbed with alcohol. A vertical incision was made through the skin with a #22 scalpel and the skin was then retracted. A further incision of about 2.5 cm was then made through the peritoneum avoiding any major blood vessels. The peritoneum was then retracted and the left kidney was exposed.
(§4) The left kidney was then brought to the surface by hooking the ureter directly beneath the kidney with sterile forceps and gently manipulating the kidney upward. The ureter was ligated at two points directly below the kidney with 5-0 surgical silk with excess suture cut away and discarded post-ligation. The kidney was then gently placed back to its correct anatomical position and the abdomen was lavaged with 1 mL sterile saline to replenish fluid loss. The peritoneum and then skin were sutured with 5-0 Mersilene, and the incision site was gently wiped with iodine. All mice were then placed individually in clean cages that were set on top of a thermal blanket until recovery at about 30-60 minutes later. In some examples, sham surgery was performed as a control by following all steps of the UUO surgical intervention procedure except ligation.
(§5) Following surgery, the mice were divided into 14 individual study groups of 8 mice each and, following post-surgical recovery, administered a once-daily oral treatment for 14 days. The mice in 12 of the 14 study groups (hereafter known as “treatment groups”) had all received the UUO surgical ligation and were treated individually with a distinct pharmacologic compound as set out in Table 1. The mice in 2 of the 14 study groups were treated individually with a pharmaceutically acceptable vehicle with no active ingredient. The pharmaceutically acceptable vehicle in all groups was 0.5% carboxymethyl cellulose (CMC). All mice were sacrificed with CO2 on post-surgical day 15.
(§6) The dose selected for the animal studies was determined by taking the maximum known human daily dose, dividing by the average weight of an adult (˜60-70 kg) to get a human mg/kg dose. […]
Body weight: The body weights were measured on days 1, 2, 5, 8, 10 and 14 using a laboratory balance.
Body weights were measured on post-surgical days 1, 2, 5, 8, 10 and 14 as previously described. The mean body weight change of each study group was calculated using the body weight average of all mice in each study group.

[2] = tested on: C57BL/6 mice with UUO surgical ligation; assay: Example 1: UUO mice, renal function evaluation (plasma BUN, creatinine); conditions: for BUN in comparison to control groups, in words / Reduction in levels of BUN compared to vehicle, significance in words: Example 1; for BUN in comparison to control groups, in words: UUO, male C57BL/6 mice, PO QD days 1-14, doses of Table 1; for Reduction in BUN compared to vehicle, in words, post-test not stated: Example 1 text and conclusions, Bemithyl 200, Repirinast 30, Bromantane 20, Telmisartan 5 mg/kg PO QD; for Reduction in levels of BUN compared to vehicle, significance in words: p<0.05, Tamhane post-test, Repirinast 30, Bemithyl 200, Bromantane 20 mg/kg PO QD
Method: as §1, §2, §3, §4, §5
The dose selected for the animal studies was determined by taking the maximum known human daily dose, dividing by the average weight of an adult (˜60-70 kg) to get a human mg/kg dose. Then that number was multiplied by 12 to convert to a mouse dose based on conventional dosing tables. See Nair and Jacob, J Basic Clin Pharm March 2016-May 2016, 7(2):27-31.
Serum collection: A blood sample was then collected from all mice and plasma analyzed for urea nitrogen and creatinine. Plasma was stored at −80° C. for possible future analysis.
Renal Function Evaluation: Renal function and disease progression was evaluated by BUN (blood urea nitrogen) as previously described. The BUN of each study group consisted of the BUN average of all mice in each study group.

[3] = tested on: C57BL/6 mice with UUO surgical ligation; assay: Example 1: UUO mice, renal fibrosis evaluation (Sirius Red histology score); conditions: Bemithyl 200, Emoxypine 160, Suplatast Tosylate 60, Udenafil 40, Telmisartan 5 mg/kg PO QD
Method: as §1, §2, §3, §4, §5, §6
Histopathology: Formalin-fixed kidney cross-section samples were subjected histopathological scoring with Sirius Red staining, and imaged at a magnification of ×20, using standard techniques. All three sections were stained and evaluated. […] The presence of interstitial damage and severity score was assessed according to the following criteria: 0=normal, 1=light, 2=moderate, 3=severe. […]

[4] = tested on: C57BL/6 mice with UUO surgical ligation; assay: Example 1: UUO mice, kidney weight evaluation (ligated vs non-ligated kidney); conditions: doses of Table 1 (Telmisartan 5 mg/kg)
Method: as §1
The UUO surgical intervention was performed according to previously described methods known in the art (Le Meur Y et al., Macrophage accumulation at a site of renal inflammation is dependent on the M-CSF/c-fms pathway, J Leukocyte Biol., 72:530-537; 2002). […]
as §6
Kidney weight: The UUO was then examined in situ to ensure that the surgical ligation ties remained patent. […] Weights of both kidneys were measured using a laboratory balance.
Kidney Weight Evaluation: Kidney weight indicating, which indicates functional and pathological changes in the kidney, was evaluated by measuring the weight of both the ligated (UUO) and non-ligated kidneys as previously described. […]

SMILES	Mean body weight change, comparison with control groups, in words [1]	BUN in comparison to control groups, in words [2]	Reduction in BUN compared to vehicle, in words, post-test not stated [2]	Reduction in levels of BUN compared to vehicle, significance in words [2]	Kidney fibrosis / Histology Score, significance and comparison in words [3]	Disparity in weight between ligated and non-ligated kidney, in words [4]
CCSc1nc2ccccc2[nH]1 [Bemithyl, 2-Ethylsulfanyl-1H-benzoimidazole]	even greater than that of the sham surgery control group; also recorded: appeared to reverse the negative effects of UUO on body weight gain	less renal dysfunction and disease progression than the positive control treatment; also recorded: decreased in comparison to the sham surgery control group; also recorded: most improved renal function of all	reduction in BUN compared to vehicle	significant reductions in the levels of BUN	decreased in comparison to the positive control treatment group; also recorded: significant reductions in kidney fibrosis; also recorded: significant improvement in kidney fibrosis	
Cc1ccc2c([nH]c(=O)c3c(=O)cc(C(=O)OCCC(C)C)oc32)c1C [Repirinast, 3-methylbutyl 7,8-dimethyl-4,5-dioxo-5,6-dihydro-4H-pyrano[3,2-c]quinoline-2-carboxylate]	greater decrease in body weight	less renal dysfunction and disease progression than the positive control treatment; also recorded: decreased in comparison to the sham surgery control group	significant reductions in BUN compared to vehicle	significant reductions in the levels of BUN		
Brc1ccc(NC2C3CC4CC(C3)CC2C4)cc1 (stereo not shown) [Bromantane, N-(4-Bromophenyl)adamantan-2-amine]	comparable to that of the surgery vehicle control group	less renal dysfunction and disease progression than the positive control treatment; also recorded: decreased in comparison to the sham surgery control group	significant reductions in BUN compared to vehicle	significant reductions in the levels of BUN		
CCCc1nc2c(C)cc(-c3nc4ccccc4n3C)cc2n1Cc1ccc(-c2ccccc2C(=O)O)cc1 [Telmisartan, 2-(4-{[4-Methyl-6-(1-methyl-1H-1,3-benzodiazol-2-yl)-2-propyl-1H-1,3-benzodiazol-1-yl]methyl}phenyl)benzoic acid]			did not show a significant reduction; also recorded: the former was not statistically significant		significant reduction; also recorded: reduction in BUN levels and fibrosis	greatest numerical reduction in the disparity between the two kidneys; also recorded: appeared to reduce the disparity in kidney size
